{"source": "paper PMC10022577", "about": "(Chem, 2023)", "target": "T1, AlbS (albireticulene synthase) (Streptomyces albireticuli, UniProt A0A2A2D8W5)", "T1 sequence (A0A2A2D8W5 1-369)": "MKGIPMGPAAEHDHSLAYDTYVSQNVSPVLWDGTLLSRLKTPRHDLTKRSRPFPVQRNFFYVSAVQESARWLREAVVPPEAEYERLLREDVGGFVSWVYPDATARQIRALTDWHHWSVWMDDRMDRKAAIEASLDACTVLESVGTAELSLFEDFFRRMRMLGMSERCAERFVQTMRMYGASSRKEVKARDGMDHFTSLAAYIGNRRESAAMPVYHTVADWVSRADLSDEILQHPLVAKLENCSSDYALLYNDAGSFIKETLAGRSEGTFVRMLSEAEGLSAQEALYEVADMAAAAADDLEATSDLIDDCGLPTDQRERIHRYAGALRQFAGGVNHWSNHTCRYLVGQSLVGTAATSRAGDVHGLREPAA", "experiment": "GC-MS product analysis", "type": "biochemical", "settings": "products: five sesquiterpenes (3-7)", "data": [{"smiles": "CC(C)=CCC/C(C)=C/CC/C(C)=C/COP(=O)(O)OP(=O)(O)O", "note": "[FPP]", "values": [{"measurement": "GC-MS product analysis", "value": "GC-MS analysis revealed that FPP was converted into five sesquiterpenes"}]}]}
